Measured values taken from patent publication US8951992B2, “Mycobacterium membrane protease as a target for inhibitors of intrabacterial pH homeostasis” (Cornell University, priority 2008, dated 2015).

Key:
Format in all cases: cell-based, Mycobacterium tuberculosis
[1] = system: Wild-type H37Rv transformed with pH-GFP; conditions: pH 4.5
[2] = system: Rv3671c mutant in IFN-γ-activated macrophages
[3] = system: Rv3671c mutant in IFN-γ-activated macrophages; remark: listed apart in the source
[4] = system: Rv3671c mutant
[5] = system: Rv3671c mutant; remark: listed apart in the source
[6] = system: Rv3671c mutant; remark: listed apart in the source
[7] = system: Rv3671c mutant; remark: listed apart in the source
[8] = system: lysX mutant

CC[C@@H](CO)NCCN[C@@H](CC)CO [Ethambutol]
concentrations causing a substantial decline in pHIB [1]: ≥ 8 μg/ml

Cl.N [NH4Cl]
effect on pHIB of the Rv3671c mutant [2]: protected
effect on survival of the Rv3671c mutant [3]: restored

CCCCCCCCCCCCOS(=O)(=O)[O-].[Na+] [SDS]
sensitivity of the Rv3671c mutant to SDS [4]: hypersensitive

N#CC(C#N)=NNc1cccc(Cl)c1 [carbonyl cyanide m-chlorophenylhydrazone]
effect on the Rv3671c mutant's pHIB [5]: further reduced
effect on the Rv3671c mutant's survival [6]: further attenuated

CC[C@H]1OC(=O)[C@H](C)[C@@H](O[C@H]2C[C@@](C)(OC)[C@@H](O)[C@H](C)O2)[C@H](C)[C@@H](O[C@@H]2O[C@H](C)C[C@H](N(C)C)[C@H]2O)[C@](C)(O)C[C@@H](C)C(=O)[C@H](C)[C@@H](O)[C@]1(C)O [erythromycin]
sensitivity of the Rv3671c mutant to the antibiotic [7]: hypersensitive
sensitivity of the lysX mutant to the antibiotic [8]: hypersensitive

NNC(=O)c1ccncc1 [isoniazid]
effect on Mtb's pHIB [1]: did not significantly alter pHIB

CC[C@@]1([C@@H]2O[C@@H]([C@H]3O[C@@](O)(CO)[C@H](C)C[C@@H]3C)C[C@@H]2C)CC[C@H]([C@]2(C)CC[C@]3(C[C@H](O)[C@@H](C)[C@@H]([C@@H](C)[C@@H](OC)[C@H](C)C(=O)O)O3)O2)O1 [monensin]
effect on Mtb's pHIB [1]: concentration dependent decline in pHIB
effect on the Rv3671c mutant's pHIB [5]: further reduced
effect on the Rv3671c mutant's survival [6]: further attenuated

NC(=O)c1cnccn1 [pyrazinmide]
effect on Mtb's pHIB [1]: did not significantly alter pHIB

CO[C@H]1/C=C/O[C@@]2(C)Oc3c(C)c(O)c4c(O)c(c(/C=N/N5CCN(C)CC5)c(O)c4c3C2=O)NC(=O)/C(C)=C\C=C\[C@H](C)[C@H](O)[C@@H](C)[C@@H](O)[C@@H](C)[C@H](OC(C)=O)[C@@H]1C [rifampin]
effect on Mtb's pHIB [1]: did not significantly alter pHIB
sensitivity of the Rv3671c mutant to the antibiotic [7]: hypersensitive
sensitivity of the lysX mutant to the antibiotic [8]: hypersensitive

[H]/N=C(/N)N[C@H]1[C@H](O)[C@@H](O)[C@H](O[C@@H]2O[C@@H](C)[C@](O)(C=O)[C@H]2O[C@@H]2O[C@@H](CO)[C@H](O)[C@@H](O)[C@@H]2NC)[C@@H](N/C(N)=N\[H])[C@@H]1O [streptomycin]
effect on Mtb's pHIB [1]: did not significantly alter pHIB
